Measured values taken from patent publication US9951271B2, “Process for making an asymmetric fluorophore” (UNITED STATES OF AMERICA, AS REPRESENTED BY THE SECRETARY …, priority 2015, dated 2018).

Legend:
[1] = test system: NIH 3T3 cells; assay: Fixed cell imaging (whole-cell staining); assay type: cell-based; settings: fixed NIH 3T3 cells, 1 μM
Description: NIH 3T3 cell line was obtained from ATCC (Manassas, Va.) and cultured routinely using sterile technique. Cell culture media consisted of DMEM supplemented with 10% FBS and 4 mM GlutaMax (Life Technologies). Both live and fixed cell automated microscopy was performed on a Zeiss AxioObserver Z1 (Carl Zeiss MicroImaging Inc., Jena, Germany) with an EC Plan-Neofluar 10×/0.30 Ph 1 objective (Carl Zeiss, Jena, Germany), and a Coolsnap HQ2 camera (Photometrics, Tucson, Ariz.). All fluorescent microscopy images were collected using a HE38 filter set (Carl Zeiss, Jena, Germany), a Colibri.2 LED light source at 100% intensity, and an exposure time of either 200 ms or 1 second. Performance benchmarking of the fluorescence microscope was performed daily. […] ImageJ (National Institutes of Health, Bethesda, Md.) was used to create figures and to determine the mean fluorescence intensity of cells.
One day prior to imaging, NIH 3T3 cells were seeded at 20,000 cells per well in a 24-well plate (Corning Costar, TC-treated). […] Using ImageJ (National Institutes of Health, Bethesda, Md.) individual cell fluorescence intensities were measured by first segmenting the 8-bit tiff image for the 4/CFSE/FNHS channel by manually finding the minimum intensity below which object boundaries began to expand into the background (the built-in watershed algorithm was also utilized to separate touching objects). […]

[2] = Photophysical characterization (UV-Vis, fluorescence emission, relative quantum yield); assay type: physicochemical
Description: The UV-Vis and fluorescence emission spectra were recorded on a Synergy HT (BioTek Instruments, Inc.) multi-detection microplate reader equipped with a 10 W Xe flash light source for absorbance and a 20 W tungsten quartz halogen source for fluorescence. Relative quantum yields were determined using rhodamine 6G in ddH2O as a reference while keeping instrument temperature and parameters constant. Serial dilutions of the asymmetric fluorophore (6) were made from a methanol stock; therefore, all dilutions of asymmetric fluorophore (6) were kept at 10% MeOH in water. All fluorescent spectra were intensity corrected using NIST SRM 2941 (excitation wavelength at 427 nm, scan emission monochromator from 450 nm to 650 nm using a 1 nm increment).

[3] = test system: NIH 3T3 cells; assay: Basal cytotoxicity MTS assay (cell viability); assay type: cell-based; settings: concentrations below 10 μM, 72-hour incubation, FIG. 6
Description: On day one, 5,000 cells per well were plated on a clear 96-well plate (Corning Costar, TC-treated) along with several blank wells with media only. The next day, the media was replaced with 180 μL of DPBS with glucose and 20 μL of 4 (final concentrations from 30 μM to 1 nM were tested, final DMSO concentration=0.1%) and incubated for 30 minutes. The dye solution was removed from the wells and 200 μL of fresh media was added to each well in the plate. The plate was then incubated (37° C., 5% CO2) for 72 hours. Then 40 μL of MTS (Promega, CellTiter 96® AQueous One Solution Cell Proliferation Assay) was added to each well and the plate was incubated (37° C., 5% CO2) for 4 hours. The absorbance of each well at 540 nm was measured on a Synergy HT plate reader (BioTek Instruments, Inc.). All assays were performed in triplicate on three separate plates.

[4] = test system: NIH 3T3 cells; assay: Live cell imaging (whole-cell staining); assay type: cell-based; settings: live NIH 3T3 cells; for staining pattern compared under same conditions and concentrations: 100 nM, FIG. 3
Description: NIH 3T3 cell line was obtained from ATCC (Manassas, Va.) and cultured routinely using sterile technique. Cell culture media consisted of DMEM supplemented with 10% FBS and 4 mM GlutaMax (Life Technologies). Both live and fixed cell automated microscopy was performed on a Zeiss AxioObserver Z1 (Carl Zeiss MicroImaging Inc., Jena, Germany) with an EC Plan-Neofluar 10×/0.30 Ph 1 objective (Carl Zeiss, Jena, Germany), and a Coolsnap HQ2 camera (Photometrics, Tucson, Ariz.). All fluorescent microscopy images were collected using a HE38 filter set (Carl Zeiss, Jena, Germany), a Colibri.2 LED light source at 100% intensity, and an exposure time of either 200 ms or 1 second. Performance benchmarking of the fluorescence microscope was performed daily. All imaging was done on the same day on the same microscope to decrease variations in image intensities. ImageJ (National Institutes of Health, Bethesda, Md.) was used to create figures and to determine the mean fluorescence intensity of cells.
One day prior to imaging, NIH 3T3 cells were seeded at 10,000 cells per well in a 24-well plate (Corning Costar, TC-treated). After 24 hours of incubation (37° C., 5% CO2), the media was removed from the plate and cells were washed once with DPBS (Ca and Mg free, Life Sciences). A total of 320 μL of DPBS with glucose was added to each well, and then 40 μL of Hoechst 33342 (final concentration of 0.5 μg/mL) and 40 μL of 4 (final concentrations from 10 μM to 1 nM were tested, final DMSO concentration=0.1%) or CFSE (final concentrations from 10 μM to 1 nM were tested, final DMSO concentration=0.1%). […] Using ImageJ (National Institutes of Health, Bethesda, Md.) individual cell fluorescence intensities were measured by first segmenting the 8-bit tiff image for the 6/CFSE/FNHS channel by manually finding the minimum intensity below which object boundaries began to expand into the background (the built-in watershed algorithm was also utilized to separate touching objects). Using a histogram of object sizes, the minimal object area was chosen and pixel intensity for each of those objects were recorded. […]

[5] = Aqueous solubility of the fluorophore; assay type: physicochemical; settings: pH independent, diluted to 0.1% DMSO from 100 mM DMSO stock
Description: The resulting fluorophore (6) was soluble in aqueous solutions (pH independent) up to […] and was diluted down to 0.1% DMSO from a 100 mM, 100% DMSO stock solution. […] Compound (6) has a sharp fluorescence peak and high quantum yield.

| Compound | fluorescence intensity relative to FNHS (quantitative image analysis) ([1]; FIG. 4) | brightness by visual appearance versus FNHS ([1]; same conditions, FIG. 5) | emission ([2]; 10% aqueous methanol, FIG. 1) [nm] | maximum excitation ([2]; 10% aqueous methanol, FIG. 1) [nm] | relative quantum yield ([2]; 10% aqueous methanol, reference rhodamine 6G in ddH2O) | maximum absorption ([2]; water (10% MeOH), FIG. 1 legend) [nm] | maximum excitation (excited at 500 nm) ([2]; water (10% MeOH), excited at 500 nm, FIG. 1 legend) [nm] | change in cell viability [3] | staining pattern compared under same conditions and concentrations [4] | staining of live cells (membrane crossing, localisation) ([4]; 30 minutes of staining, 1 μM, FIG. 2) | soluble in aqueous solutions [5] |
| --- | --- | --- | --- | --- | --- | --- | --- | --- | --- | --- | --- |
| CC1=C(CCC(=O)ON2C(=O)CCC2=O)C(C)=[N+]2C1=Cc1cccn1[B-]2(F)F [Compound 6, 4,4-difluoro-1,3-dimethyl-4-bora-3a,4a-diaza-s-indacene-2-propionic acid N-hydroxysuccinimide ester] | three fold brighter than FNHS | appeared brighter than FNHS | 516 | 502 | 0.84 | 502 | 516 | no significant change in cell viability | less diffuse staining | crossed the cell membrane and stained the cytoplasmic regions with some nuclear staining | up to 1 μM |
| carboxyfluorescein succinimidyl ester [CFSE, reference compound] | – | – | – | – | – | – | – | – | more diffuse staining pattern | – | – |
